Values of other authors as cited in patent US20240109913A1, “NEW SPIRO[3H-INDOLE-3,2'-PYRROLIDIN]-2(1H)-ONE COMPOUNDS AND DERIVATIVES AS MDM2-P53 INHIBITORS” (Boehringer Ingelheim International GmbH, priority 2014, published 2024).

How the values were obtained:
[1] = system: p53 wild-type vs. p53 mutant cell lines; settings: in vitro (Carol et al. 2013)
[2] = system: solid tumor xenograft models; settings: solid tumor xenograft models (Carol et al. 2013)
[3] = system: acute lymphoblastic leukemia (ALL) xenograft models with mixed-lineage leukemia (MLL) rearrangement; settings: ALL xenograft models with MLL rearrangement (Carol et al. 2013)
[4] = system: human acute myeloid leukemia (AML) and human prostate tumor xenograft models harboring p53 wild-type; settings: p53 wild-type (Tovar et al. 2013)

Row | Structure (SMILES) | cytotoxic activity, median IC50 [1] | tumor growth inhibition [2] | efficacy in ALL xenograft models [3] | antiproliferative and proapoptotic activity [4]
1 | CCOc1cc(C(C)(C)C)ccc1C1=N[C@@](C)(c2ccc(Cl)cc2)[C@@](C)(c2ccc(Cl)cc2)N1C(=O)N1CCN(CCCS(C)(=O)=O)CC1 [RG-7112] | lower median IC50 values for p53 wild-type vs. p53 mutant cell lines | induced tumor growth inhibition | particularly efficacious | 
2 | CCOc1cc(C(C)(C)C)ccc1C1=N[C@@](C)(c2ccc(Cl)cc2)[C@@](C)(c2ccc(Cl)cc2)N1C(=O)N1CCN(CCCS(C)(=O)=O)CC1 [RG7112] |  |  |  | antiproliferative and proapoptotic activity of RG7112 has been observed
